Test results from ChEMBL document CHEMBL4680286, “Design, synthesis and antibacterial evaluation of novel oxazolidinone derivatives nitrogen-containing fused heterocyclic moiety” (2021).
≈ marks a conversion by molar mass, not a printed value.

Key:
Type in all cases: functional
[1] = test system: Staphylococcus aureus; assay: Antibacterial activity against Staphylococcus aureus ATCC 29213
[2] = test system: Staphylococcus aureus; assay: Antibacterial activity against methicillin-resistant Staphylococcus aureus
[3] = test system: Staphylococcus aureus; assay: Antibacterial activity against methicillin-sensitive Staphylococcus aureus
[4] = test system: Enterococcus faecalis; assay: Antibacterial activity against linezolid-resistant Enterococcus faecalis
[5] = test system: Enterococcus faecium; assay: Antibacterial activity against vancomycin-resistant Enterococcus faecium
[6] = test system: Staphylococcus aureus; assay: Antibacterial activity against hospital acquired methicillin-resistant Staphylococcus aureus clinical isolates
[7] = test system: Staphylococcus aureus; assay: Antibacterial activity against hospital acquired methicillin-sensitive Staphylococcus aureus clinical isolates
[8] = test system: Enterococcus faecium; assay: Antibacterial activity against hospital acquired vancomycin-resistant Enterococcus faecium clinical isolates
[9] = test system: Enterococcus faecalis; assay: Antibacterial activity against hospital acquired linezolid-resistant Enterococcus faecalis clinical isolates
[10] = test system: Streptococcus; assay: Antibacterial activity against Streptococcus
[11] = test system: Staphylococcus; assay: Antibacterial activity against Staphylococcus
[12] = test system: Enterococcus; assay: Antibacterial activity against Enterococcus

## CC(=O)NC[C@H]1CN(c2ccc(-c3ccc(-c4cc5n(n4)CCNC5)cc3)c(F)c2)C(=O)O1
[1]
  MIC: 2 µg/mL (≈ 4.45 µM)
[2]
  MIC: 2 µg/mL (≈ 4.45 µM)
[3]
  MIC: 2 µg/mL (≈ 4.45 µM)
[4]
  MIC: 2 µg/mL (≈ 4.45 µM)
[5]
  MIC: 0.5 µg/mL (≈ 1.11 µM)

## CC(=O)NC[C@H]1CN(c2ccc(-c3ccc(-c4nc5n(n4)CCN(C)C5)cc3)c(F)c2)C(=O)O1
[1]
  MIC: 1 µg/mL (≈ 2.15 µM)
[2]
  MIC: 1 µg/mL (≈ 2.15 µM)
[3]
  MIC: 1 µg/mL (≈ 2.15 µM)
[4]
  MIC: 2 µg/mL (≈ 4.31 µM)
[5]
  MIC: 1 µg/mL (≈ 2.15 µM)

## CC(=O)NC[C@H]1CN(c2ccc(-c3ccc(-c4nc5cnccn5n4)cc3)c(F)c2)C(=O)O1
[6]
  MIC: 0.5 µg/mL (≈ 1.12 µM)
[1]
  MIC: 0.5 µg/mL (≈ 1.12 µM)
[2]
  MIC: 0.5 µg/mL (≈ 1.12 µM)
[3]
  MIC: 0.5 µg/mL (≈ 1.12 µM)
[4]
  MIC: 0.5 µg/mL (≈ 1.12 µM)
[5]
  MIC: 0.5 µg/mL (≈ 1.12 µM)
[7]
  MIC: 0.5 µg/mL (≈ 1.12 µM)
[8]
  MIC: 0.5 µg/mL (≈ 1.12 µM)
[9]
  MIC: 0.5 µg/mL (≈ 1.12 µM)

## CC(=O)NC[C@H]1CN(c2ccc(-c3ccc(-c4nnc5cnccn45)cc3)c(F)c2)C(=O)O1
[1]
  MIC: 1 µg/mL (≈ 2.24 µM)
[2]
  MIC: 1 µg/mL (≈ 2.24 µM)
[3]
  MIC: 1 µg/mL (≈ 2.24 µM)
[4]
  MIC: 1 µg/mL (≈ 2.24 µM)
[5]
  MIC: 1 µg/mL (≈ 2.24 µM)

## CC(=O)NC[C@H]1CN(c2ccc(-c3ccc(-c4nc5ccccn5n4)cc3)c(F)c2)C(=O)O1
[1]
  MIC: 2 µg/mL (≈ 4.49 µM)
[2]
  MIC: 1 µg/mL (≈ 2.24 µM)
[3]
  MIC: 2 µg/mL (≈ 4.49 µM)
[4]
  MIC: 1 µg/mL (≈ 2.24 µM)
[5]
  MIC: 0.5 µg/mL (≈ 1.12 µM)

## CC(=O)NC[C@H]1CN(c2ccc(-c3ccc(-c4nc5n(n4)CCNC5)cc3)c(F)c2)C(=O)O1
[1]
  MIC: 2 µg/mL (≈ 4.44 µM)
[2]
  MIC: 2 µg/mL (≈ 4.44 µM)
[3]
  MIC: 1 µg/mL (≈ 2.22 µM)
[4]
  MIC: 1 µg/mL (≈ 2.22 µM)
[5]
  MIC: 1 µg/mL (≈ 2.22 µM)

## CC(=O)NC[C@H]1CN(c2ccc(-c3ccc(-c4nnc5ccccn45)cc3)c(F)c2)C(=O)O1
[1]
  MIC: 2 µg/mL (≈ 4.49 µM)
[2]
  MIC: 2 µg/mL (≈ 4.49 µM)
[3]
  MIC: 1 µg/mL (≈ 2.24 µM)
[4]
  MIC: 1 µg/mL (≈ 2.24 µM)
[5]
  MIC: 2 µg/mL (≈ 4.49 µM)

## CC(=O)NC[C@H]1CN(c2ccc(-c3ccc(-c4cc5n(n4)CCN(C)C5)cc3)c(F)c2)C(=O)O1
[1]
  MIC: 1 µg/mL (≈ 2.16 µM)
[2]
  MIC: 1 µg/mL (≈ 2.16 µM)
[3]
  MIC: 1 µg/mL (≈ 2.16 µM)
[4]
  MIC: 1 µg/mL (≈ 2.16 µM)
[5]
  MIC: 0.5 µg/mL (≈ 1.08 µM)

## CC(=O)NC[C@H]1CN(c2ccc(N3CCOCC3)c(F)c2)C(=O)O1 [LINEZOLID]
[6]
  MIC: 1 µg/mL (≈ 2.96 µM)
[1]
  MIC: 1 µg/mL (≈ 2.96 µM)
[2]
  MIC: 1 µg/mL (≈ 2.96 µM)
[3]
  MIC: 1 µg/mL (≈ 2.96 µM)
[4]
  MIC: > 16 µg/mL
[5]
  MIC: 2 µg/mL (≈ 5.93 µM)
[7]
  MIC: 1 µg/mL (≈ 2.96 µM)
[8]
  MIC: 1 µg/mL (≈ 2.96 µM)
[9]
  MIC: > 16 µg/mL

## CC(=O)NC[C@H]1CN(c2ccc(-c3ccc(CNCc4cnn[nH]4)cc3)c(F)c2)C(=O)O1 [RADEZOLID]
[10]
  MIC: 0.125 µg/mL (≈ 0.285 µM)
[11]
  MIC: 0.125 µg/mL (≈ 0.285 µM)
[12]
  MIC: 0.125 µg/mL (≈ 0.285 µM)
[1]
  MIC: 0.5 µg/mL (≈ 1.14 µM)
[2]
  MIC: 0.5 µg/mL (≈ 1.14 µM)
[3]
  MIC: 0.5 µg/mL (≈ 1.14 µM)
[4]
  MIC: 0.5 µg/mL (≈ 1.14 µM)
[5]
  MIC: 0.5 µg/mL (≈ 1.14 µM)
